Reference: patent US20190100557A1, “PRO[…], A GENE TRANSFER ENHANCER” (Pharis Biotec GmbH, priority 2013, published 2019)
Non-standard residues stand in square brackets, D forms with d. Residues, ends and D or L forms follow the SMILES beside them. pGlu = O=C1CC[C@@H](C(=O)O)N1

What was measured:
cells = test: Transduction of cells with protransduzin B (vectors preincubated with peptide fibrils); assay type: cell-based; settings: protransduzin B 25 μg/ml added to vectors, cells incubated 2 days
Method: Dissolve 0.5 mg of protransduzin B in 50 μl of DMSO. Then add 450 μl of PBS to the solution, fibrils forming within 3 min. Add this stock solution (1 mg/ml) to the vectors to obtain a concentration of protransduzin B of 25 μg/ml. Vortex the solution for 1 min, then centrifuge with 5000 g for 5 min. The supernatant is discarded, and the pellet is suspended in a little PBS and added to the cells. The cells are incubated in an incubator for 2 days.

[1] = Storage stability in aqueous solution followed by HPLC (FIG. 1); assay type: physicochemical; settings: storage at 4° C. for 13 days, in vitro
Method: FIG. 1 is a high pressure liquid chromatography (HPLC) chromatogram of protransduzin A and protransduzin B.
In the left column of FIG. 1 (HPLC chromatogram), results for protransduzin A upon storage for 0-13 days at −20° C. and at 4° C. (13 days) are compared with the results for protransduzin B under the same conditions.

**Q.** Which cells transduced (cells) does the source give for CC[C@H](C)[C@H](NC(=O)[C@H](CCCCN)NC(=O)[C@H](CS)NC(=O)[C@@H]1CCC(=O)N1)C(=O)N[C@@H](CCCCN)C(=O)N[C@@H](CCC(N)=O)C(=O)N[C@H](C(=O)N[C@H](C(=O)N[C@@H](CC(N)=O)C(=O)N[C@@H](CCSC)C(=O)N[C@@H](Cc1c[nH]c2ccccc12)C(=O)N[C@@H](CCC(N)=O)C(=O)O)[C@@H](C)CC)[C@@H](C)CC [protransduzin B] ([pGlu]CKIKQIINMWQ-OH) here?
**A.** Up to 96%

**Q.** What about the transduction rate (cells) of the same compound?
**A.** significantly enhanced

**Q.** And the “degradation upon storage (HPLC peak height)” value [1]?
**A.** hardly degraded at all
